Assay results as given in the NIST ThermoML archive (doi:10.1021/je900641w).
± gives the expanded uncertainty stated by the source.

Settings: 1000 kPa, Liquid, Coaxial cylinder method

Row | Structure (SMILES) | thermal conductivity (302.75 K) | thermal conductivity (332.54 K) | thermal conductivity (362.39 K) | thermal conductivity (392.16 K)
1 | c1ccccc1 [benzene] | 0.1409 ± 0.0037 W/m/K | 0.1304 ± 0.0035 W/m/K | 0.1194 ± 0.0032 W/m/K | 0.1098 ± 0.003 W/m/K
2 | COCC(C)OCC(C)OC (centres undefined) [2-methoxy-1-(2-methoxy-1-methylethoxy)propane] | 0.1242 ± 0.0056 W/m/K | 0.1169 ± 0.0052 W/m/K | 0.1085 ± 0.0049 W/m/K | 0.099 ± 0.0045 W/m/K
3 | COCCOCCOC [2,5,8-trioxanonane] | 0.1461 ± 0.0065 W/m/K | 0.1324 ± 0.0059 W/m/K | 0.1205 ± 0.0054 W/m/K | 0.1076 ± 0.0048 W/m/K
4 | COCCOCCOCCOCCOC [2,5,8,11,14-pentaoxapentadecane] | 0.1469 ± 0.0065 W/m/K | 0.1407 ± 0.0063 W/m/K | 0.1345 ± 0.006 W/m/K | 0.1274 ± 0.0057 W/m/K
5 | COCCOC [1,2-dimethoxyethane] | 0.1605 ± 0.0071 W/m/K | 0.1452 ± 0.0064 W/m/K | 0.1317 ± 0.0059 W/m/K | 0.1183 ± 0.0053 W/m/K
6 | COCCOCCOCCOC [2,5,8,11-tetraoxadodecane] | 0.1433 ± 0.0064 W/m/K | 0.137 ± 0.0061 W/m/K | 0.1303 ± 0.0058 W/m/K | 0.1227 ± 0.0055 W/m/K
